Test results as given in US9988358B2, “Phenazinium mediators” (Roche Diagnostics Operations, Inc., priority 2014, dated 2018).

Legend:
Type in all cases: physicochemical
[1] = Formal redox potential by cyclic voltammetry in a test strip
Experimental: FIG. 1.) cyclic voltammograms of 1-(3-Carboxy-propionylamino)-5-ethyl-phenazinium (compound of formula (III)). A: Buffer pH 7.0 (blank current), B: 2 mM 1-(3-Carboxy-propionylamino)-5-ethyl-phenazinium in buffer, C: 2 mM 1-(3-Carboxy-propionylamino)-5-ethyl-phenazinium+1.2 mM ascorbic acid in buffer, D: 1.2 mM ascorbic acid in buffer.
The formal redox potential of a typical 1-Acylated amino phenazinium ethosulfate, 1-(3-Carboxy-propionylamino)-5-ethyl-phenazinium (compound of formula (III)), was measured vs. Ag/AgCl at a gold working electrode in a test strip. The cyclic voltammograms show, that a relatively low potential of −100 mV vs. Ag/AgCl is sufficient in order to oxidize the substance.
The quasi reversible oxidation and reduction of the mediator 1-(3-Carboxy-propionylamino)-5-ethyl-phenazinium occurs in a potential range between 0 mV and −500 mV vs. Ag/AgCl via two electron transfer. Ascorbic acid cannot be oxidized in this potential window and the current is similar to the blank current of the pure buffer solution.

[2] = Pot life of mediator formulations; conditions: 48 h vs t=0 in reaction mixture
Experimental: FIG. 3.) Pot life of mediator formulations. Mediators 1-(3-Carboxy-propionylamino)-5-ethyl-phenazinium and 1-(3-Carboxypropoxy)-5-ethylphenazinium were compared in a pot life experiment. Pot life of 1-(3-Carboxy-propionylamino)-5-ethyl-phenazinium (A: 0 h, B: 48 h) and 1-(3-Carboxypropoxy)-5-ethylphenazinium (C:=0 h, D: 48 h) are shown; Linear: linear regression.
Mediators 1-(3-Carboxy-propionylamino)-5-ethyl-phenazinium and 1-(3-Carboxypropoxy)-5-ethylphenazinium were compared in a pot life experiment. Performance of mediators was measured immediately after preparing the reaction mixture (t=0) and after 48 h. […] Therefore, both mediators seem to be very stable in a formulation.

[3] = Reactivity towards ascorbate, decrease of absorption over time; conditions: 0.23 mM compound, room temperature, 0.1 M triethylammonium acetate buffer pH 7, 5 fold molar excess of ascorbate
Experimental: 1-Acetylamino-5-methyl-phenazinium trifluormethanesulfonate, 1-Acetylamino-5-ethyl-phenazinium trifluoroacetate, and 1-(3-Carboxy-propionylamino)-5-ethyl-phenazinium (formula III) were compared regarding their reactivity towards ascorbate. To this end, each 0.23 mM of the respective compound was incubated at room temperature in 0.1 M triethylammonium acetate buffer (pH 7) in the presence of a 5 fold molar excess of ascorbate. Decrease of absorption at 517 nm (1-(3-Carboxy-propionylamino)-5-ethyl-phenazinium) or 512 nm (other two compounds) was recorded over time. Whereas with 1-Acetylamino-5-methyl-phenazinium, the absorption decreased by 12% per minute, the decrease slowed to 7% per minute for 1-Acetylamino-5-ethyl-phenazinium, and to less than 5% for 1-(3-Carboxy-propionylamino)-5-ethyl-phenazinium.

Row | Compound | redox potential after adding ascorbic acid ([1]; 2 mM mediator + 1.2 mM ascorbic acid in buffer pH 7.0, cyclic voltammetry) | formal redox potential ([1]; gold working electrode in a test strip, physiological conditions (0.9% NaCl), cyclic voltammetry) | change in current after pot life [2] | decrease of absorption at 517 nm [3] | decrease of absorption at 512 nm [3]
1 | CC[n+]1c2ccccc2nc2c(NC(=O)CCC(=O)O)cccc21 [1-(3-Carboxy-propionylamino)-5-ethyl-phenazinium] | −231 mV vs. Ag/AgCl | −236 mV vs. Ag/AgCl | no significant decrease in current | less than 5% | 
2 | CC[n+]1c2ccccc2nc2c(OCCCC(=O)O)cccc21 [1-(3-Carboxypropoxy)-5-ethylphenazinium, reference compound] |  |  | no significant decrease in current |  | 
3 | CC[n+]1c2ccccc2nc2c(NC(C)=O)cccc21.O=C([O-])C(F)(F)F [1-Acetylamino-5-ethyl-phenazinium, 1-Acetylamino-5-ethyl-phenazinium trifluoroacetate] |  |  |  |  | 7 % per minute
4 | CC(=O)Nc1cccc2c1nc1ccccc1[n+]2C.O=S(=O)([O-])C(F)(F)F [1-Acetylamino-5-methyl-phenazinium, 1-Acetylamino-5-methyl-phenazinium trifluormethanesulfonate] |  |  |  |  | 12 % per minute
